Our source for the IC50 values is ChEMBL document CHEMBL1131260, “Studies on selectin blockers. 6. Discovery of homologous fucose sugar unit necessary for E-selectin binding” (J Med Chem, 1998).

For this test, the target named is T1, E-selectin (Homo sapiens, UniProt P16581).
T1 sequence (P16581 whole entry): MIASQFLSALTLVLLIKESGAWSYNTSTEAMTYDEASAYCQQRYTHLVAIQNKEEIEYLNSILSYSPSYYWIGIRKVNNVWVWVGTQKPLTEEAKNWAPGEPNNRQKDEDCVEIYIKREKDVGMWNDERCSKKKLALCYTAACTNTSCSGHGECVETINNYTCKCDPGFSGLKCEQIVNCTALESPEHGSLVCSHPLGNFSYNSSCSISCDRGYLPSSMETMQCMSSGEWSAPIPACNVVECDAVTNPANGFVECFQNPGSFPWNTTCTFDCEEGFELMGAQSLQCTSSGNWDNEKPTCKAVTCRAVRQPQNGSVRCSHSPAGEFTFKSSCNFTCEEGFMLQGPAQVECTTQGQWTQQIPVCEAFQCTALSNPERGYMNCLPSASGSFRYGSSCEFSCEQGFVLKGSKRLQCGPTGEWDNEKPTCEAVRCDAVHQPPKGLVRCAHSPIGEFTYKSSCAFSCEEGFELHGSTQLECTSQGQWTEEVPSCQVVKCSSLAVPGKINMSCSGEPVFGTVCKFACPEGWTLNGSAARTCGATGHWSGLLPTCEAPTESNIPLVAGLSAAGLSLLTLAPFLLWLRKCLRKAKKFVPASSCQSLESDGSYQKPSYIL
The experiment in a line: In vitro inhibitory activity against Selectin E-sialyl Lewis X (sLex) binding.
`CCCCCCCCCCCCCCC(CCCCCCCCCCCCCC)C(=O)NC(COC1O[C@@H](O)[C@@H](O)[C@H](O)[C@@H]1O)C(=O)N[C@H](CCC(=O)O)C(=O)NC` (single isomer, unassigned) displayed an IC50 of 13 µM.

For the compound `CCCCCCCCCCCCCCC(CCCCCCCCCCCCCC)C(=O)NC(CO[C@@H]1O[C@@H](O)[C@@H](O)[C@H](O)[C@@H]1O)C(=O)N[C@@H](CCC(=O)O)C(=O)NC` (single isomer, unassigned), the half-maximal inhibitory concentration (IC50) was 1.5 µM.

`CCCCCCCCCCCCCCC(CCCCCCCCCCCCCC)C(=O)N[C@@H](CO[C@@H]1O[C@H](C(C)O)[C@@H](O)[C@@H]1O)C(=O)N[C@H](CCC(=O)O)C(=O)NC` (some centres undefined) registered a 50% inhibitory concentration (IC50) of 3.1 µM.

The compound `CCCCCCCCCCCCCCC(CCCCCCCCCCCCCC)C(=O)N[C@H](CO[C@@H]1O[C@H](C(C)O)[C@@H](O)[C@@H]1O)C(=O)N[C@@H](CCC(=O)O)C(=O)NC.N=C(N)NCCC[C@H](N)C=O` (some centres undefined) gave a 50% inhibitory concentration (IC50) of 4.3 µM.
